The assay addresses T1, Stimulator of interferon genes protein [R71H,G230A,H232R,R293Q] (Homo sapiens, UniProt Q86WV6, G230A/H232R/R293Q/R71H).
T1 construct: gene STING1
As to the kind of experiment: 3H-cGAMP Filtration Binding Assay. How it is done: The compounds were serially titrated by the Hamilton STARPlus CORE in a 96-well plate (Greiner, #651201) using a 1:3 ten-point dose response format. After compound preparation, a 2.2 ug/ml working concentration of STING membrane (SEQ. ID. No. 1) was prepared by diluting concentrated membrane into assay buffer (lx PBS; Invitrogen #SH30028.02) and douncing 7× using a manual tissue homogenizer (Wheaton, #357546). 148 uL of prepared membrane was then manually added to each well of a 96-well deep-well polypropylene plate (Fisher Scientific, #12-566-121). Following membrane addition, 2 uL of either titrated test compound, DMSO control (Sigma #276855), or cold cGAMP control was added to the appropriate wells using a BIOMEK FX. Compound and membrane then preincubated for 60 min at RT to allow compound binding to equilibrate. Following equilibration, 8 nM of [3H]c-GAMP ligand was prepared by diluting into assay buffer, and 50 uL of this working stock was then manually added to each well of the assay plate. Plates were then incubated at RT for 60 min, and the contents of each assay plate were then filtered through a 96-well GF/B filter plate (PerkinElmer, #6005250) using a TOMTEC MACH III Cell Harvester equipped with 20 mM HEPES buffer (Fisher Scientific, #BP299500). […] Tritium levels for each reaction well were then measured using a PerkinElmer TopCount plate reader.

Molecules are shown by their SMILES. A value given as a limit tells only on which side of the number the result lay.

For orientation: EC50 means the concentration that produces a half-maximal response. The low end stands for an effect from little substance, the high end for a need for much substance.

T1 sequence (Q86WV6 whole entry R71H/G230A/H232R/R293Q, looked up): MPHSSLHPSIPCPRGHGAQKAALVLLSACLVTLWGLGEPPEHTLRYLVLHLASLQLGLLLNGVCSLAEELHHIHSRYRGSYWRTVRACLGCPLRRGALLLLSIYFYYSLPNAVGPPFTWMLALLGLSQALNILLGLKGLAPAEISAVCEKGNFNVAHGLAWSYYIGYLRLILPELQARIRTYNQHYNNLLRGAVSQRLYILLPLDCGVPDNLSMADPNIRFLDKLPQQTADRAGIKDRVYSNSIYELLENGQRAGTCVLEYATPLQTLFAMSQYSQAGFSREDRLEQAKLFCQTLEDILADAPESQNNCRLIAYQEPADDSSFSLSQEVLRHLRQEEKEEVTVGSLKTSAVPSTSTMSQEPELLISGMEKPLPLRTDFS

In the case of `Nc1nc2c(ncn2[C@@H]2O[C@@H]3COP(=S)(S)O[C@H]4[C@H](F)[C@H](n5cnc6c(=O)[nH]cnc65)O[C@@H]4COP(O)(=S)O[C@@H]2[C@@H]3F)c(=O)[nH]1` (stereo partly specified) [US11466047, Example 27], the half-maximal effective concentration (EC50) is less than 1 nM.

These data come from BindingDB's records for patent US11466047 (Merck Sharp & Dohme, 2022).
